# Measurements taken from patent US6262031A, “Method for treating pediculosis capitisinfestation” (Merck & Co., Inc., priority 2000, dated 2001).
# Assays:
# [1] = test system: adult worm of any species of Filarioidea; conditions: causing lymphatic filariasis, tropical pulmonary eosinophilia syndrome, lymphadenitis or lymphangitis; cited from earlier work
# [2] = test system: mammalian ligand-gated chloride channels; conditions: cited from earlier work
# [3] = test system: glutamate-gated chloride ion channels; conditions: invertebrate nerve and muscle cells; cited from earlier work
# [4] = test system: head lice; conditions: single topical application; cited from earlier work
# [5] = test system: head lice; conditions: single oral dose 100-200 ug/kg; cited from earlier work
# [6] = ivermectin; cited from earlier work
# [7] = test system: nematodes; conditions: cited from earlier work
# [8] = test system: Pediculosis capitis; conditions: 200 ug/kg single oral dose, 26 patients; cited from earlier work
# [9] = test system: head lice; experiment: Example 2: comparison of head lice treatment using orally administered ivermectin at cumulative doses of 200, 400 and 600 ug/kg; format: in vivo, human
# Procedure: On Days 1, 4, 8 and 15, patients had their scalp inspected for viable nits and their hair shampooed (prior to dosing, if the day for scalp inspection was also a "dosing" day). The rinse water was filtered through a towel that enabled the number of lice (for each stage of nymphs and/or adult lice) to be recorded. An independent qualitative assessment was performed on a subset of towels. All patients were also seen on Days 5 and 9 for the assessment of clinical adverse experiences.
# The primary analysis was based on treatment outcome (success or failure) on Day 15. "treatment success" is defined to mean that no live lice were observed on Day 15. "Reinfestation" corresponds to the condition where the patient, previously free of lice (including any stage nymphs and/or adult lice) on Day 8, is infested thereafter with adult lice. "Reinfestation" also corresponds to the condition where the patient, previously free of lice and nits, is infested thereafter with adult lice and first and second stage nymphs. The percent of treatment success was calculated.
# (§1) Three groups of patients were treated.
# [10] = test system: Onchocerca volvulus; conditions: cited from earlier work
# [11] = test system: Onchocerca volvulus; conditions: single oral dose, cited from earlier work
# [12] = test system: head lice; experiment: Example 8: comparison of head lice treatment using orally administered ivermectin at cumulative doses of 800, 1200 and 600 ug/kg and shampoo cleaning; format: in vivo, human; conditions: for Treatment success (%) Day 15: washing shampoo the day after each dose
# Procedure: On Days 1, 4 and 8, patients had their scalp inspected for nits and lice. Their hair was shampooed on Days 2, 5, 9, and 15. The rinse water was filtered through a towel that enabled the number of lice (for each stage of nymph and/or adult lice) to be recorded. An independent qualitative assessment was performed on those towels with live lice at Day 15. Clinical adverse experiences were collected at all visits.
# The primary analysis was based on treatment outcome (success or failure) on Day 15. "Treatment success" is defined to mean that no live lice were observed on Day 15, or, if lice were present on Day 15, that they were the result of reinfestation. "Reinfestation" corresponds to the condition where the patient, previously free of lice (including any stage nymphs and/or adult lice) on Day 9, is infested thereafter with adult lice. Patients who were reinfested were counted as successes. The percent of treatment success was calculated.
# as §1
# [13] = test system: Strongyloides stercoralis; conditions: cited from earlier work
# [14] = cited from earlier work
# [15] = Example 7: ivermectin plasma levels in fasted and fed state; format: in vivo, human; conditions: 30 mg oral; high fat meal vs fasting, three weeks apart
substance,measurement,setting,value
"mixture containing at least 90% 5-O-demethyl-22,23-dihydroavermectin A1a and less than 10% 5-O-demethyl-25-de(1-methylpropyl)-22,23-dihyro-25-(1-methylethyl) avermectin A1a [ivermectin]",activity against adult worm of any species of Filarioidea,[1],has not been shown to have any activity against adult worm
same,affinity for mammalian ligand-gated chloride channels,[2],low affinity
same,binding affinity to glutamate-gated chloride ion channels,[3],selectively binds with high affinity
same,effect of binding on cell membrane and parasite,[3],"increase in the permeability of the cell membrane to chloride ions with hyperpolarization of the nerve or muscle cell, resulting in paralysis and death of the parasite"
same,curative effect on head lice,[4],absolute curative effect
same,effect on head lice infestation,[5],"significant, but not absolute, effect"
same,plasma half-life,[6],about 12 hours
same,activity against life-cycle stages of nematodes,[7],active against various life-cycle stages of many but not all nematodes
same,effectiveness against head lice,[8],effectiveness of ivermectin 200 mcg/kg single dose against head lice
same,"success rate, comparison of groups","[9]; 200 ug/kg doses on Days 1, 4 and 8",highest success rate
same,Treatment success (%) Day 15,"[9]; Group 1: oral 200 ug/kg on Day 1, 29 patients",52%
same,Treatment success (%) Day 15,"[9]; Group 2: oral 200 ug/kg on Days 1 and 8, 28 patients",68%
same,Treatment success (%) Day 15,"[9]; Group 3: oral 200 ug/kg on Days 1, 4 and 8, 31 patients",81%
same,activity against the adult form,[10]; adult form,not against the adult form
same,activity against tissue microfilariae,[10]; tissue microfilariae,active against the tissue microfilariae
same,dermal microfilarial density,[11]; after one month,near zero
same,maintenance of low microfilarial level,[11],up to 12 months
same,Treatment success (%) Day 15,"[12]; Group 1: oral 400 ug/kg on Days 1 and 8, 57 patients",98.2%
same,Treatment success (%) Day 15,"[12]; Group 2: oral 400 ug/kg on Days 1, 4 and 8, 60 patients",100%
same,Treatment success (%) Day 15,"[12]; Group 3: oral 200 ug/kg on Days 1, 4 and 8, 57 patients",100%
same,"success rates, comparison of groups","[12]; all three study groups, Day 15",comparable success rates
same,activity against Strongyloides stercoralis,[13],limited to the intestinal stages
same,overall incidences of adverse experiences,"[14]; amicrofilaremic population, mass treatment programs",1%
same,laboratory abnormalities,[14]; studies of microfilaremic patients,"eosinophilia, liver function abnormalities and hematuria"
same,"increase in bioavailability, fed vs fasted state",[15],2.5 times
